Read-outs that look alike come from different tables or passages of the source.
What was measured:
[1] = Solubility of Ecadotril in water; type: physicochemical; settings: 37 °C
Source text: Ecadotril (N-[(S)-α-(mercaptomethyl)hydrocinnamoyl]glycine, benzyl ester, acetate(ester); N-[(S)-α-(acetylthiomethyl)hydrocinnamoyl]glycine, benzyl ester) is an enkephalinase inhibitor used as a hypotensive drug, a cardiac insufficiency therapeutic drug, or the like. […] Therefore, when formulated into tablets, capsules, or the like by conventional methods, sufficient absorbability of Ecadotril in the digestive tract cannot be obtained because of low dispersibility of drug particles. Thus, a preparation of Ecadotril with improved bioavailability, in particular a tablet with high content, has been demanded. Generally, it is known that in order to obtain sufficient absorbability of such water-insoluble drugs, the solubility (dissolving rate) of the drugs is enhanced. For example, Japanese Laid-Open Patent Publication No. 7-76516 discloses a method for spray drying dispersions in which finely ground drug particles and a hydrophilic excipient are dispersed in water. However, according to this method, when powder to be obtained is formulated into tablets, there is a possibility that drug particles come into close contact with each other thereby decreasing the disintegration property and absorbability of the preparation. Furthermore, in the case where water-insoluble drugs such as Ecadotril with a low melting point and high plasticity are used, particles are likely to aggregate. […]

[2] = Dissolution test (in vitro test), paddle method; type: physicochemical; settings: 100 mg of the preparation, distilled water 900 ml, 37° C.
Method: (2) Dissolution test (in vitro test) Apparatus: Dissolution test machine in accordance with The 12th revised Japanese Pharmacopoeia using the paddle method a stirring speed 100 rpm. Test solution: Distilled water 900 ml, 37° C. Collection of solution: Eluates are collected 5, 10, 15, 30, 45, and 60 minutes after the commencement of dissolution, and the respective eluates are filtrated through […] 13; Kento Chemical Co., Ltd.) aqueous filter (0.22 μm). Then, about 1.5 ml each of the filtrates is collected. One milliliter of this filtrate or standard solution is mixed with 1 ml of internal standard, and 25 μl of the mixed solution is injected to HPLC.

CC(=O)SC[C@@H](Cc1ccccc1)C(=O)NCC(=O)OCc1ccccc1 [Ecadotril, N-[(S)-α-(mercaptomethyl)hydrocinnamoyl]glycine, benzyl ester, acetate(ester)]
solubility ([1]; read-out: solubility in water): ~33 µg/mL
solubility ([1]; read-out: solubility of Ecadotril in water): 33 µg/mL
maximum dissolution amount in the present test [2]: about 30%
